From patent publication US8759519B2, “Mono-hydrochloric salts of an inhibitor of histone deacetylase” (Janssen Pharmaceutica NV, priority 2007, dated 2014)
Structures can show the parent of a compound that is named as a salt.

Assays:
Assay type in all cases: physicochemical
[1] = Adsorption/desorption of water (dynamic vapor sorption)
Protocol: The ADS/DES data were obtained using a SMS dynamic vapor sorption model DVS-1 and the weight change was recorded with tespect to the atmospheric humidity at 25° C. The weight of the samples was about 17 mg of Form I and 24 mg of Form II. The samples were dried for 60 min under dry nitrogen. The equilibrium was lower or equal to 0.01%/min. for minimal 15 min and maximal 60 min. The data interval was 0.05% or 2.0 min.
Relative Humidity (%) measurement points were:
The adsorption and desorption of water at 25° C. at different conditions of relative humidity was investigated on 17 mg Form I.
The weight change as a function of relative humidity was registered.
The adsorption and desorption of water at 25° C. at different conditions of relative humidity was investigated on about 24 mg Form II

[2] = Crystallographic stability after storage in open conditions (TGA, DSC, XRPD, IR); set-up: key to XRD / IR: ~Ref: identical with reference; Cryst.: crystalline; settings: for IR / XRD: Table G
Protocol: The stability of the crystal structure of Form I was studied after storage of the compound in open conditions for a period of six weeks at room temperature (RT) under <5%, 56% and 75% relative humidity (RH), 50° C. and 40° C./75% RH.
The samples are analyzed with thermogravimetry (TGA), differential scanning calorimetry (DSC), X-ray powder diffraction (XRPD) and infrared spectroscopy (IR).
The stability of the crystal structure of Form II was studied after storage of the compound in open conditions for a period of six weeks at room temperature (RT) under <5%, 56% and 75% relative humidity (RH), 50° C. and 40° C./75% RH.
The samples were analyzed with thermogravimetry (TGA), differential scanning calorimetry (DSC), X-ray powder diffraction (XRPD) and infrared spectroscopy (IR).

[3] = Chemical stability after storage in open conditions (HPLC, visual inspection); settings: for HPLC Sum of impurities / Appearance: hydrochloride
Protocol: Form I was stored in different open conditions for periods of 1, 4 and 8 weeks.
These conditions are 40° C./75% RH, 50° C., RT/<5% RH, RT/56% RH, RT/75% RH and 0.3 da ICH light.
The compounds were analyzed after storage by HPLC and by visual inspection.
Form II was stored in different open conditions for periods of 1, 4 and 8 weeks. These conditions were 40° C./75% RH, 50° C., RT/<5% RH, RT/56% RH, RT/75% RH and 0.3 da ICH light.

[4] = 0 days (reference), hydrochloride
[5] = extra endothermic signal, six weeks open, 40° C./75% RH
[6] = extra endothermic signal, six weeks open, 50° C.
[7] = extra endothermic signal, six weeks open, RT/56% RH
[8] = extra endothermic signal, six weeks open, RT/75% RH
[9] = extra endothermic signal, six weeks open, RT/<5% RH
[10] = six weeks open, 40° C./75% RH, hydrochloride
[11] = six weeks open, 50° C., hydrochloride
[12] = six weeks open, RT/<5% RH, hydrochloride

drying during the desorption cycle ([1]; 25° C.): dries completely | hygroscopic behavior ([1]; 25° C., adsorption/desorption test, hydrochloride): hygroscopic | water adsorbed at high relative humidity ([1]; 25° C., high relative humidity, hydrochloride): up to 9.6% | crystallinity during the adsorption/desorption test ([1]; 25° C., hydrochloride): remains crystalline | weight loss during the initial drying step ([1]; dried under dry nitrogen): 1.67% | DSC Max (° C.) ([2]; 0 days (reference)): ±198 °C | TGA <170° C. ([2]; 0 days (reference)): 0.4% | App (appearance) [2, 4]: white | TGA <100° C. [2, 4]: 3.3% | IR ([2]; six weeks open, 40° C./75% RH): ≠Ref | XRD ([2]; six weeks open, 40° C./75% RH): ≠Ref | IR ([2]; six weeks open, 50° C.): ~Ref | XRD ([2]; six weeks open, 50° C.): ~Ref | IR ([2]; six weeks open, RT/56% RH): ≠Ref | XRD ([2]; six weeks open, RT/56% RH): ≠Ref | IR ([2]; six weeks open, RT/75% RH): ≠Ref | XRD ([2]; six weeks open, RT/75% RH): ≠Ref | IR ([2]; six weeks open, RT/<5% RH): ~Ref | XRD ([2]; six weeks open, RT/<5% RH): ~Ref | DSC Extra (° C.) ([2]; extra endothermic signal (solvent evaporation), 0 days (reference)): 71.5 °C | DSC Extra, heat of the signal ([2]; extra endothermic signal, 0 days (reference)): (78 J/g) | DSC Extra (° C.) [2, 5]: 83.9 °C | DSC Extra, heat of the signal [2, 5]: (151 J/g) | DSC Extra (° C.) [2, 6]: 74.6 °C | DSC Extra, heat of the signal [2, 6]: (66 J/g) | DSC Extra (° C.) [2, 7]: 87.1 °C | DSC Extra, heat of the signal [2, 7]: (144 J/g) | DSC Extra (° C.) [2, 8]: 85.2 °C | DSC Extra, heat of the signal [2, 8]: (153 J/g) | DSC Extra (° C.) [2, 9]: 75.1 °C | DSC Extra, heat of the signal [2, 9]: (68 J/g) | crystallographic stability (conclusion) ([2]; six weeks open storage under the different conditions, hydrochloride): crystallographically not stable | DSC Max (° C.) ([2]; six weeks open, 40° C./75% RH): ±198 °C | TGA <170° C. ([2]; six weeks open, 40° C./75% RH): 0.2% | App (appearance) [2, 10]: pink | TGA <100° C. [2, 10]: 6% | DSC Max (° C.) ([2]; six weeks open, 50° C.): ±198 °C | TGA <170° C. ([2]; six weeks open, 50° C.): 0.2% | App (appearance) [2, 11]: white | TGA <100° C. [2, 11]: 2.1% | DSC Max (° C.) ([2]; six weeks open, RT/56% RH): ±198 °C | TGA <170° C. ([2]; six weeks open, RT/56% RH): 0.3% | TGA <100° C. ([2]; six weeks open, RT/56% RH, hydrochloride): 5.2% | DSC Max (° C.) ([2]; six weeks open, RT/75% RH): ±198 °C | TGA <170° C. ([2]; six weeks open, RT/75% RH): 0.3% | TGA <100° C. ([2]; six weeks open, RT/75% RH, hydrochloride): 4.9% | DSC Max (° C.) ([2]; six weeks open, RT/<5% RH): ±198 °C | TGA <170° C. ([2]; six weeks open, RT/<5% RH): 0.4% | App (appearance) [2, 12]: white | TGA <100° C. [2, 12]: 1.9% | HPLC Sum of impurities ([3]; 0.3 da ICH light (1 week)): 7.42% | HPLC Sum of impurities ([3]; 40° C./75% RH, 1 week): 4.96% | Appearance ([3]; 40° C./75% RH, 4 weeks): pink | HPLC Sum of impurities ([3]; 40° C./75% RH, 4 weeks): 4.99% | Appearance ([3]; 40° C./75% RH, 8 weeks): pink | HPLC Sum of impurities ([3]; 40° C./75% RH, 8 weeks): 4.9% | Appearance ([3]; 50° C., 1 week): white | HPLC Sum of impurities ([3]; 50° C., 1 week): 4.96% | Appearance ([3]; 50° C., 4 weeks): white | HPLC Sum of impurities ([3]; 50° C., 4 weeks): 5% | HPLC Sum of impurities ([3]; 50° C., 8 weeks): 4.9% | HPLC Sum of impurities ([3]; RT/56% RH, 4 weeks): 5.05% | HPLC Sum of impurities ([3]; RT/56% RH, 8 weeks): 4.94% | HPLC Sum of impurities ([3]; RT/75% RH, 4 weeks): 5.03% | HPLC Sum of impurities ([3]; RT/75% RH, 8 weeks): 4.97% | Appearance ([3]; RT/<5% RH, 4 weeks): white | HPLC Sum of impurities ([3]; RT/<5% RH, 4 weeks): 5.1% | Appearance ([3]; RT/<5% RH, 8 weeks): white | HPLC Sum of impurities ([3]; RT/<5% RH, 8 weeks): 4.98% | Appearance ([3]; Reference (1 week)): white | HPLC Sum of impurities ([3]; Reference (1 week)): 5.04% | discoloration ([3]; after storage in 0.3 da ICH light): white to or orange-brown | discoloration ([3]; after storage in humid conditions RT/56% RH, RT/75% RH and 40° C./75% RH and elevated temperature 50° C.): white to pink | sensitivity towards light (sum of impurities) ([3]; storage in 0.3 da ICH light conditions): showed a sensitivity towards light
SMILES: Cn1cc(CNCC2CCN(c3ncc(C(=O)NO)cn3)CC2)c2ccccc21 [Form II, N-hydroxy-2-[4-[[[(1-methyl-1H-indol-3-yl)methyl]amino]methyl]-1-piperidinyl]-5-pyrimidinecarboxamide hydrochloride]
